What was measured:
Format in all cases: cell-based
[1] = tested on: HIV-1 IIIB strain; assay: microbe, parasite or virus in culture; conditions: for EC50: Human immunodeficiency virus 1, IIIB, MT4, read-out: EC50 HIV-1
Protocol: (§1) HIV-1IIIB and HIV-2 CBL-20 strains were obtained from the supernatants of persistently infected H9/IIIB and CEM cells, respectively. HIV-1 and HIV-2 stock solutions had titres of 4.5 × 10^7 and 1.4 × 10^6 50% cell culture infectious doses (CCID50)/ml, respectively. […] The K103R + V179D + P225H mutant (EFVR) was derived from an IIIB strain passaged in MT-4 cells in the presence of Efavirenz (up to 2 μM). N119, A17 and EFV^R stock solutions had titres of 1.2 × 10^8, 2.1 × 10^7, and 4.0 × 10^7 CCID50/ml, respectively.
(§2) The activity of the test compounds against the replication of HIV-1 wt and mutant strains (N119, A17, EFV^R, AZT^R, MDR, SAQ^R) and HIV-2 wt in acutely infected cells was based on the inhibition of virus-induced cytopathogenicity in MT-4 and C8166 cells, respectively. Briefly, 50 μL of culture medium containing 1 × 10^4 cells was added to each well of flat-bottom microtitre trays containing 50 μL of culture medium with or without different serial concentrations of test compounds. Then, 20 μL of an HIV suspension (containing the appropriate amount of CCID50 required to cause complete cytopathogenicity on day 4, final multiplicity of infection [m.o.i.] 0.01) was added.

[2] = tested on: HIV-1 SAQR (L10F, G48V, L90M); assay: Inhibition of virus-induced cytopathogenicity in MT-4 cells, PRI-resistant mutant SAQR; conditions: for EC50: Human immunodeficiency virus 1, MT4, read-out: EC50 SAQR
Protocol: as §1, §2

[3] = Cytotoxicity in mock-infected MT-4 cells (MTT method); conditions: human
Protocol: as §2, with “added. After incubation at 37 °C, cell viability was determined using the […] (MTT) method ([Pauwels et al., 1988]). The cytotoxicity of the test compounds was evaluated in parallel with their antiviral activity through the viability of mock-infected, treated cells, as monitored by the MTT method and described elsewhere ([Morellet et al., 1994]).” for “added.”

[4] = tested on: HIV-1 N119 (Y181C); assay: Inhibition of virus-induced cytopathogenicity in MT-4 cells, NNRTI-resistant mutant N119; conditions: for EC50: Human immunodeficiency virus 1, MT4, read-out: EC50 N119
Protocol: as §1, §2

[5] = tested on: HIV-1 EFVR (K103R + V179D + P225H); assay: Inhibition of virus-induced cytopathogenicity in MT-4 cells, NNRTI-resistant mutant EFVR; conditions: for EC50: Human immunodeficiency virus 1, MT4, read-out: EC50 EFVR
Protocol: as §1, §2

[6] = tested on: HIV-1 AZTR (67N, 70R, 215F, 219Q); assay: Inhibition of virus-induced cytopathogenicity in MT-4 cells, NRTI-resistant mutant AZTR; conditions: for EC50: Human immunodeficiency virus 1, MT4, read-out: EC50 AZTR
Protocol: as §1, §2

[7] = tested on: HIV-1 A17 (K103N + Y181C); assay: Inhibition of virus-induced cytopathogenicity in MT-4 cells, NNRTI-resistant mutant A17; conditions: for EC50: Human immunodeficiency virus 1, MT4, read-out: EC50 A17
Protocol: as §1, §2

[8] = tested on: HIV-1 MDR (74V, 41L, 106A, 215Y); assay: Inhibition of virus-induced cytopathogenicity in MT-4 cells, NRTI-resistant mutant MDR; conditions: for EC50: Human immunodeficiency virus 1, MT4, read-out: EC50 MDR
Protocol: as §1, §2

Row | Compound | EC50 [1] [µM] | EC50 [2] [µM] | CC50 at 4 days [3] [µM] | EC50 [4] [µM] | EC50 [5] [µM] | EC50 [6] [µM] | EC50 [7] [µM] | EC50 [8] [µM] | Selectivity Index (SI = CC50/EC50) HIV-1 ([1]; IIIB strain, in round brackets) | Selectivity Index (SI = CC50/EC50) SAQR ([2]; in round brackets) | CC50 at 4 days ([3]; MT-4, MTT method) [µM] | Selectivity Index (SI = CC50/EC50) N119 ([4]; in round brackets) | Selectivity Index (SI = CC50/EC50) EFVR ([5]; in round brackets) | Selectivity Index (SI = CC50/EC50) AZTR ([6]; in round brackets) | Selectivity Index (SI = CC50/EC50) A17 ([7]; in round brackets) | Selectivity Index (SI = CC50/EC50) MDR ([8]; in round brackets) | CC50 ([3]; MT-4, MTT method) [µM]
1 | Cc1ccc(S(=O)(=O)N(n2sc3ccccc3c2=O)S(=O)(=O)c2ccc(C)cc2)cc1 [Compound 21, 4-Methyl-N-[(4-methylphenyl)sulfonyl]-N-(3-oxo-1,2-benzisothiazol-2(3H)-yl)benzenesulfonamide] | 76 | 63 | > 100 | 44 | 70 | 70 | 58 | 63 | – | – | – | – | – | – | – | – | –
2 | O=c1c2ccccc2sn1N(S(=O)(=O)c1ccc([N+](=O)[O-])cc1)S(=O)(=O)c1ccc([N+](=O)[O-])cc1 [Compound 22, 4-Nitro-N-[(4-nitrophenyl)sulfonyl]-N-(3-oxo-1,2-benzisothiazol-2(3H)-yl)benzenesulfonamide] | 21 | 23 | – | 20 | 21 | 24 | 20 | 25 | > 4 | > 4 | > 100 | > 5 | > 4 | > 4 | > 5 | > 4 | –
3 | O=c1c2ccccc2sn1N(S(=O)(=O)c1ccc(F)cc1)S(=O)(=O)c1ccc(F)cc1 [Compound 23, 4-Fluoro-N-[(4-fluorolphenyl)sulfonyl]-N-(3-oxo-1,2-benzisothiazol-2(3H)-yl)benzenesulfonamide] | 26 ± 2 | 22 | 36 ± 2.5 | 23 ± 1 | 25 | 22 | 24 | 25 | – | – | – | – | – | – | – | – | –
4 | O=c1c2ccccc2sn1N(S(=O)(=O)c1ccc(Cl)cc1)S(=O)(=O)c1ccc(Cl)cc1 [Compound 24, 4-Chloro-N-[(4-chlorophenyl)sulfonyl]-N-(3-oxo-1,2-benzisothiazol-2(3H)-yl)benzenesulfonamide] | 71 ± 6 | 63 | > 100 | 29 ± 1 | 65 | 71 | 56 | 64 | – | – | – | – | – | – | – | – | –
5 | CC(C)(C)NC(=O)[C@@H]1C[C@@H]2CCCC[C@@H]2CN1C[C@@H](O)[C@H](Cc1ccccc1)NC(=O)[C@H](CC(N)=O)NC(=O)c1ccc2ccccc2n1 [SAQ, saquinavir, reference compound] | 0.01 ± 0.001 | 0.5 ± 0.1 | – | 0.02 ± 0.001 | 0.01 ± 0.005 | 0.01 ± 0.005 | 0.01 ± 0.002 | 0.02 ± 0.007 | – | – | – | – | – | – | – | – | ≥ 20

From article PMC12627007, “HIV nucleocapsid proteins as targets for novel 1,2-benzisothiazol-3(2H)-one benzenesulfonamides: synthesis and antiretroviral activity” (Frontiers in Microbiology, 2025)
